Holding throughout (assay type): in vivo
Test [1] relates to Setaria faberi (SETFA). Description: Post-emergence herbicidal glasshouse test, SETFA. To be noted: 125 g/h, evaluated after 13 days, five-point scale. The essentials:
(§1)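 Pots were sprayed one day after sowing (pre-emergence) or after 8 days' growth (post-emergence) with compound in acetone/water 50:50 plus 0.5% Tween 20, at 125 g/h unless otherwise indicated. Plants were grown at 24/16 °C with 14 h light and 65% humidity. Percentage damage was scored after 13 days on a five-point scale (5 = 80–100%, 1 = 0–19%).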

Test [2] concerns Ipomoea hederacea (IPOHE). Description: Pre-emergence herbicidal glasshouse test, IPOHE. The settings on record: 125 g/h, evaluated after 13 days, five-point scale. The essentials:
as §1

For test [3], the system named is Amaranthus retoflexus (AMARE). Description: Pre-emergence herbicidal glasshouse test, AMARE. To be noted: 125 g/h, evaluated after 13 days, five-point scale. The method in brief:
as §1

Test [4] has as its system Echinochloa crus-galli (ECHCG). Description: Pre-emergence herbicidal glasshouse test, ECHCG. The settings on record: 125 g/h, evaluated after 13 days, five-point scale. The essentials:
as §1

Test [5] concerns Echinochloa crus-galli (ECHCG). Description: Post-emergence herbicidal glasshouse test, ECHCG. To be noted: 125 g/h, evaluated after 13 days, five-point scale. The method in brief: as §1
Test [6] deals with Ipomoea hederacea (IPOHE). Description: Post-emergence herbicidal glasshouse test, IPOHE. The settings on record: 125 g/h, evaluated after 13 days, five-point scale. The essentials: as §1
For test [7], the system named is Setaria faberi (SETFA). Description: Pre-emergence herbicidal glasshouse test, SETFA. To be noted: 125 g/h, evaluated after 13 days, five-point scale. The method in brief:
as §1

Test [8] has as its system Amaranthus retoflexus (AMARE). Description: Post-emergence herbicidal glasshouse test, AMARE. Set-up: dose or concentration left out as unconfirmed. The settings on record: evaluated after 13 days, five-point scale. The method in brief: as §1
For test [9], the system named is Abutilon theophrasti (ABUTH). Description: Pre-emergence herbicidal glasshouse test, ABUTH. To be noted: 125 g/h, evaluated after 13 days, five-point scale. The protocol: (§2) Seeds of a variety of test species are sown in standard soil in pots (Lolium perenne (LOLPE), Amaranthus retoflexus (AMARE), Abutilon theophrasti (ABUTH), Setaria faberi (SETFA), Echinochloa crus-galli (ECHCG), Ipomoea hederacea (IPOHE)). After cultivation for one day (pre-emergence) or after 8 days cultivation (post-emergence) under controlled conditions in a glasshouse (at 24/16° C., day/night; 14 hours light; 65% humidity), the plants are sprayed with an aqueous spray solution derived from the formulation of the technical active ingredient in acetone/water (50:50) solution containing 0.5% Tween 20 (polyoxyethelyene sorbitan monolaurate, CAS RN 9005-64-5). Compounds are applied at 125 g/h unless otherwise indicated. The test plants are then grown in a glasshouse under controlled conditions in a glasshouse (at 24/16° C., day/night; 14 hours light; 65% humidity) and watered twice daily. After 13 days for pre and post-emergence, the test is evaluated for the percentage damage caused to the plant. The biological activities are shown in the following table on a five-point scale (5=80-100%; 4=60-79%; 3=40-59%; 2=20-39%; 1=0-19%). “—” denotes not tested on this species or data not captured.

Test [10] relates to Abutilon theophrasti (ABUTH). Description: Post-emergence herbicidal glasshouse test, ABUTH. The settings on record: 125 g/h, evaluated after 13 days, five-point scale. The protocol:
as §2

The results in this text go back to patent US12637437B2, “Herbicidal compounds” (SYNGENTA CROP PROTECTION AG, priority 2021, dated 2026).

As to `CC(C)OC(=O)Nc1c(OC(F)(F)F)ccc(C(=O)Nc2nnnn2C)c1Cl` [Compound 1.007], the “percentage damage caused to the plant, POST Application SETFA” value in the test on Setaria faberi (SETFA) [1] is 4 (4=60-79%). Further, the “percentage damage caused to the plant, PRE Application IPOHE” value in test [2] is listed as 4 (4=60-79%). The “percentage damage caused to the plant, PRE Application AMARE” value in test [3] is listed as 5 (5=80-100%). Moreover, the “percentage damage caused to the plant, PRE Application ECHCG” value in test [4] is 5 (5=80-100%). The “percentage damage caused to the plant, POST Application ECHCG” value in [5] is on record as 4 (4=60-79%). Besides, the “percentage damage caused to the plant, POST Application IPOHE” value in test [6] is recorded as 4 (4=60-79%). Further, in the test with Setaria faberi (SETFA) [7], the “percentage damage caused to the plant, PRE Application SETFA” value is 4 (4=60-79%). The “percentage damage caused to the plant, POST Application AMARE” value in test [8] is reported as 4 (4=60-79%). Further, the “percentage damage caused to the plant, PRE Application ABUTH” value in [9] is reported as 5 (5=80-100%). Further, in test [10], the “percentage damage caused to the plant, POST Application ABUTH” value is on record as 5 (5=80-100%).

Turning to `CCOC(=O)Nc1c(OC(F)F)ccc(C(=O)Nc2nnnn2C)c1Cl` [Compound 1.008], the “percentage damage caused to the plant, POST Application SETFA” value in the test on Setaria faberi (SETFA) [1] is recorded as 4 (4=60-79%). Moreover, the “percentage damage caused to the plant, PRE Application IPOHE” value in test [2] is recorded as 4 (4=60-79%). Moreover, in test [3], the “percentage damage caused to the plant, PRE Application AMARE” value is given as 5 (5=80-100%). The “percentage damage caused to the plant, PRE Application ECHCG” value in [4] is listed as 5 (5=80-100%). Further, the “percentage damage caused to the plant, POST Application ECHCG” value in test [5] was 4 (4=60-79%). Moreover, the “percentage damage caused to the plant, POST Application IPOHE” value in test [6] is recorded as 4 (4=60-79%). Moreover, the “percentage damage caused to the plant, PRE Application SETFA” value in the test on Setaria faberi (SETFA) [7] is 4 (4=60-79%). In [8], the “percentage damage caused to the plant, POST Application AMARE” value is reported as 4 (4=60-79%). Besides, the “percentage damage caused to the plant, PRE Application ABUTH” value in [9] is 5 (5=80-100%). In addition, in [10], the “percentage damage caused to the plant, POST Application ABUTH” value was 4 (4=60-79%).

For `CCOC(=O)Nc1c(OC(F)F)ccc(C(=O)Nc2nnnn2CC)c1Cl` [Compound 1.009], in the test on Setaria faberi (SETFA) [1], the “percentage damage caused to the plant, POST Application SETFA” value is on record as 3 (3=40-59%). Also, the “percentage damage caused to the plant, PRE Application IPOHE” value in [2] is 4 (4=60-79%). Further, the “percentage damage caused to the plant, PRE Application AMARE” value in test [3] is recorded as 5 (5=80-100%). For the same compound, in [4], the “percentage damage caused to the plant, PRE Application ECHCG” value is given as 4 (4=60-79%). For the same compound, the “percentage damage caused to the plant, POST Application ECHCG” value in [5] was 5 (5=80-100%). In addition, the “percentage damage caused to the plant, POST Application IPOHE” value in test [6] is listed as 4 (4=60-79%). Also, the “percentage damage caused to the plant, PRE Application SETFA” value in the test with Setaria faberi (SETFA) [7] is 3 (3=40-59%). In addition, the “percentage damage caused to the plant, POST Application AMARE” value in test [8] is on record as 4 (4=60-79%). The “percentage damage caused to the plant, PRE Application ABUTH” value in [9] was 5 (5=80-100%). Further, in test [10], the “percentage damage caused to the plant, POST Application ABUTH” value is 4 (4=60-79%).

Consider `CCn1nnnc1NC(=O)c1ccc(OC(F)F)c(NC(=O)OC)c1Cl` [Compound 1.010], for which the “percentage damage caused to the plant, POST Application SETFA” value with Setaria faberi (SETFA) [1] is given as 5 (5=80-100%). Moreover, the “percentage damage caused to the plant, PRE Application IPOHE” value in test [2] was 4 (4=60-79%). The “percentage damage caused to the plant, PRE Application AMARE” value in test [3] is 3 (3=40-59%). In addition, in [4], the “percentage damage caused to the plant, PRE Application ECHCG” value is listed as 3 (3=40-59%). Besides, the “percentage damage caused to the plant, POST Application ECHCG” value in test [5] is reported as 5 (5=80-100%). Moreover, the “percentage damage caused to the plant, POST Application IPOHE” value in test [6] was 4 (4=60-79%). The “percentage damage caused to the plant, PRE Application SETFA” value with Setaria faberi (SETFA) [7] is 3 (3=40-59%). The “percentage damage caused to the plant, POST Application AMARE” value in test [8] is listed as 4 (4=60-79%). The “percentage damage caused to the plant, PRE Application ABUTH” value in test [9] is recorded as 5 (5=80-100%). In [10], the “percentage damage caused to the plant, POST Application ABUTH” value is given as 3 (3=40-59%).
